Measured values: patent publication US4863920A, “Imidazodiazepine derivatives for treatment of disorders of the central nervous system” (Hoffmann-La Roche Inc., priority 1987, dated 1989)

Assays:
[1] = system: pentetrazole-induced spasmodic seizures; test: Antipentetrazole test (protection from pentetrazole seizures); format: in vivo; conditions: Rattus norvegicus, po; female rats 60-80 g; p.o. 30 minutes before 120 mg/kg pentetrazole i.p.; 10 animals per dosage; Probit; read-out: Antipemtetrazole test ED 50
Method: The central properties of the compounds of formula I in accordance with the invention can be determined, for example, in the antipentetrazole animal model which is described hereinafter and which is generally recognized for recording anticonvulsant properties.
In this animal model, the compound under investigation is administered orally to female rats weighing 60-80 g and 30 minutes later there are administered i.p. 120 mg/kg of pentetrazole, which causes emprosthotonus and tonic stretchings of the fore and/or hind limbs in unprotected experimental animals 1-4 minutes after the injection. Ten experimental animals are used per dosage of test substance. After counting the protected experimental animals the ED50 is determined according to the Probit method. The ED50 is that dosage which protects 50% of the experimental animals from the spasmodic seizures caused by pentetrazole.

[2] = Acute toxicity, single oral administration to rats; conditions: rat, in vivo, read-out: Toxicity LD 50
Description: The results which have been obtained with representative members of the class of compound defined by formula I in the experiments described previously are compiled in the following Table. Moreover, the Table contains data concerning the acute toxicity of some of these compounds (LD50 in mg/kg in the case of single oral administration to rats).

[3] = biological target: central benzodiazepine receptors (cerebral cortex); test: Affinity to benzodiazepine receptors (inhibition of tritiated diazepam binding in cerebral cortex); conditions: inhibition of specific binding of tritiated diazepam, read-out: Affinity to benzodiazepine receptors IC 50
Method: The affinity of compounds of formula I to the central benzodiazepine receptors was determined according to the method described in Life Science 20, 2101-2110 (1977) and Science 198, 849-851 (1977). According to this method, the inhibition of the binding of tritiated diazepam at the specific benzodiazepine receptors in the cerebral cortex by the respective test substances is ascertained. The IC50 ("50% inhibiting concentration") is that concentration of the respective test substance which brings about a 50 percent inhibition of the specific binding of the tritiated diazepam at the specific benzodiazepine receptors in the cerebral cortex.

[4] = system: diazepam effect in the pentetrazole test; test: Antagonism of diazepam in the pentetrazole test; format: in vivo; conditions: Mus musculus, po; mice; diazepam 5 mg/kg i.p. one hour before and compound p.o. 15 minutes before pentetrazole 120 mg/kg i.p.; read-out: Antagonism of diazepam ED 50
Method: This property was used to elaborate the test described hereinafter which permits the investigation of compounds capable of antagonizing the central properties of 1,4-benzodiazepines having tranquillizing activity.
(§1) The antagonistic activity of the compounds investigated, that is, their capability to counteract the effect of the diazepam in the pentetrazole test, is determined by counting the mice which suffer spasmodic seizures in this test. The ED50 denotes the amount of the respective test compound in mg/kg (p.o.) which in 50% of the animals counteracts the diazepam effect in the above test.

[5] = system: pentetrazole-induced spasmodic seizures; test: Pentetrazole test, protection by diazepam; format: in vivo; conditions: 5 mg/kg (i.p.) diazepam, supramaximal dosage; more than 900 mice
Method: as §1

Compound | ED50 [1] [mg/kg] | LD50 [2] [mg/kg] | IC50 [3] [nM] | ED50 [4] [mg/kg] | protection from spasmodic seizures in the pentetrazole test [5]
CN1Cc2c(C#CC(C)(C)O)ncn2-c2cccc(Br)c2C1=O [E, 7-bromo-4,5-dihydro-3-(3-hydroxy-3-methyl-1-butynyl)-5-methyl-6H-imidazo[1,5-a][1,4]benzodiazepin-6-one] | 0.29 | 500 to 1000 | 2 |  | 
C#Cc1ncn2c1CN(C)C(=O)c1cc(F)ccc1-2 [B, 3-ethynyl-8-fluoro-4,5-dihydro-5-methyl-6H-imidazo[1,5-a][1,4]benzodiazepine-6-one] |  | 312 to 625 | 24 | 1.5 | 
CN1C(=O)CN=C(c2ccccc2)c2cc(Cl)ccc21 [diazepam] |  |  |  |  | protected all experimental animals from spasmodic seizures
C#Cc1ncn2c1CN(C)C(=O)c1c(Cl)cccc1-2 [A, 7-chloro-3-ethynyl-4,5-dihydro-5-methyl-6H-imidazo[1,5-a][1,4]benzodiazepin-6-one] |  | 312 to 625 | 4.5 | 0.24 | 
CC#Cc1ncn2c1CN(C)C(=O)c1c(Cl)cccc1-2 [C, 7-chloro-4,5-dihydro-5-methyl-3-(1-propynyl)-6H-imidazo[1,5-a][1,4]benzodiazepin-6-one] |  | > 5000 | 2.3 | 0.36 | 
C=Cc1ncn2c1CN(C)C(=O)c1c(Cl)cccc1-2 [F, 7-chloro-4,5-dihydro-5-methyl-3-vinyl-6H-imidazo[1,5-a][1,4]benzodiazepin-6-one] |  | 1250 to 2500 | 7.6 | 1.2 | 
C#Cc1ncn2c1[C@@H]1CCCN1C(=O)c1c(Cl)cccc1-2 [D, (S)-8-chloro-1-ethynyl-11,12,13,13a-tetrahydro-9H-imidazo[1,5-a]pyrrolo[2,1-c][1,4]benzodiazepin-9-one] | 1.5 | > 4000 | 2.4 | > 50 | 
